Source: patent publication US9018381B2, “Chemical compounds” (AstraZeneca AB, priority 2010, dated 2015)

Tests used:
Bcl-XL = Bcl-XL (Homo sapiens (Human), UniProt Q07817); assay: Bcl-XL FP assay (fluorescence polarization competitive binding); conditions: C-terminal 6×HIS tagged Bcl-XL (aa 1-209), FITC-Bim BH-3 peptide tracer
From the text: (§1) Bcl-xL and Bcl-2 FP binding affinity of compound(s) of Formulae (I), (I-a), (I-b), (I-c), (I-d) and/or (I-e) may be determined using a variety of known methods. One such assay is a sensitive and quantitative in vitro binding assay using fluorescence polarization (“FP”) described by Wang, J.-L.; Zhang, Z-J.; Choksi, S.; Sjam. S.; Lu, Z.; Croce, C. M.; Alnemri, E. S.; Komgold, R.; Huang, Z. Cell permeable Bcl-2 binding peptides: a chemical approach to apoptosis induction in tumor cells. Cancer Res. 2000, 60, 1498-1502).
(§2) Additionally, the binding affinity of compound(s) of Formulae (I), (I-a), (I-b), (I-c), (I-d) and/or (I-e) to Bcl-2 protein in vitro was determined by a competitive binding assay based on fluorescence polarization. For example, fluorescence polarization (“FP”) assays may be developed using a c-terminal 6×HIS tagged Bcl-2 (aa 1-204) and a C-terminal 6×HIS tagged Bcl-XL (aa 1-209). […] Dilutions of either Bcl-2 (1.3 nM) or Bcl-XL (0.8 nM) may be added to serial dilutions of antagonist and incubated for one hour prior to the addition of 2 nM of fluorescent peptide tracer (Anaspec, Fremont, Calif.) in the assay buffer. Final assay buffer conditions may be 20 mM HEPES, pH 7.5, 1 mM DTT, 0.005% Tween-20 and 50 mM NaCl. Samples may be read after 20-minute incubation. Fluorescence polarization values may be plotted as a function of the antagonist concentration.

Bcl-2 = Bcl-2 (Homo sapiens (Human), UniProt P10415); assay: Bcl-2 FP assay (fluorescence polarization competitive binding); conditions: c-terminal 6×HIS tagged Bcl-2 (aa 1-204), FITC-Bim BH-3 peptide tracer
From the text: as §1, §2

Bcl-2, sequence (P10415 1-204): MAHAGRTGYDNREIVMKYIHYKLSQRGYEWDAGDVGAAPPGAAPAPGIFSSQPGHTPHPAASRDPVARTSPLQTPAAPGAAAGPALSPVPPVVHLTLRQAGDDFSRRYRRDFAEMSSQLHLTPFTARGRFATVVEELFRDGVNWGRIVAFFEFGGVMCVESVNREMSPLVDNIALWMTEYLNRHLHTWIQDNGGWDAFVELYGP
Bcl-XL, sequence (Q07817 1-209): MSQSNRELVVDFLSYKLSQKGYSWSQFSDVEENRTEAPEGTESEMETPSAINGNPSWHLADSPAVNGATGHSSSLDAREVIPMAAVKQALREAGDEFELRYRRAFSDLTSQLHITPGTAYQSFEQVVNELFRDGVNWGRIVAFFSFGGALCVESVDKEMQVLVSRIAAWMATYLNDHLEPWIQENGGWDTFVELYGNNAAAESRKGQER

O=C(NS(=O)(=O)c1ccc(N[C@H](CCN2CCN(C[C@H](O)CF)CC2)CSc2ccccc2)c(S(=O)(=O)C(F)(F)F)c1)c1ccc(N2CCC([C@@H](O)c3ccccc3-c3ccc(Cl)cc3)CC2)cc1 (single isomer, unassigned) [Example 6]
IC50 (Bcl-XL): 2 nM | IC50 (Bcl-2): 1 nM
